Laboratory results taken from US8022102B2, “Unsaturated tetracyclic tetrahydrofuran derivatives” (Janssen Pharmaceutica, NV, priority 2004, dated 2011).

target: T1, human cloned 5-HT2A receptor (Homo sapiens, UniProt P28223); assay: In vitro binding affinity for 5-HT2A receptor (radioligand binding); details: human cloned 5-HT2A receptor, radioligand binding; read-out: h-5HT2A (converted)
T1 construct: expressed in transfected cells; host or cells: L929 cells
Procedure: During the incubation, the radioligands bind to the receptor. When equilibrium of binding is reached, the receptor bound radioactivity is separated from the non-bound radioactivity, and the receptor bound activity is counted. The interaction of the test compounds with the receptors is assessed in competition binding experiments. Various concentrations of the test compound are added to the incubation mixture containing the tissue preparation and the radioligand. Binding of the radioligand will be inhibited by the test compound in proportion to its binding affinity and its concentration. The affinities of the compounds for the 5-HT2 receptors were measured by means of radioligand binding studies conducted with: (a) human cloned 5-HT2A receptor, expressed in L929 cells using [^125I]R91150 as radioligand and (b) human cloned 5-HT2C receptor, expressed in CHO cells using [^3H]mesulergine as radioligand.

T1 sequence (P28223 whole entry): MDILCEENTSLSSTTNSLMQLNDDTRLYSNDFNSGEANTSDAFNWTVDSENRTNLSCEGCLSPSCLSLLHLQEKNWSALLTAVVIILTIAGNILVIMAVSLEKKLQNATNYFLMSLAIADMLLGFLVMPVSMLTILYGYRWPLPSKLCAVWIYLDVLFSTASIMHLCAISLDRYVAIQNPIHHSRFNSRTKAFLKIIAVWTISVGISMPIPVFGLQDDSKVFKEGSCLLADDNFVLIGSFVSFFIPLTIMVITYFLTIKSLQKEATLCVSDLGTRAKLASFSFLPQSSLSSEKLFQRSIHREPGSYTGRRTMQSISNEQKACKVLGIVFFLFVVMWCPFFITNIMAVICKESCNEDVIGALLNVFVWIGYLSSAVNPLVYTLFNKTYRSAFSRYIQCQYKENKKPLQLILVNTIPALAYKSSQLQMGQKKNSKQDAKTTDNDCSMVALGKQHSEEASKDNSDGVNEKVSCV

SMILES	IC50 [nM]
CS(=O)(=O)N1CCN(CC2CC3=C(O2)c2cc(F)ccc2Oc2ccccc23)CC1 (stereo not drawn) [Compound 45]	79.4
O=S(=O)(Cc1ccccc1)N1CCN(CC2CC3=C(O2)c2cc(F)ccc2Cc2ccccc23)CC1 (stereo not drawn) [Compound 51]	79.4
O=S(=O)(Cc1ccccc1)N1CCN(CC2CC3=C(O2)c2cc(F)ccc2Oc2ccccc23)CC1 (stereo not drawn) [Compound 52]	100
CC(=O)N1CCN(CC2CC3=C(O2)c2cc(F)ccc2Cc2ccccc23)CC1 (stereo not drawn) [Compound 53]	3.98
CC(=O)N1CCN(CC2CC3=C(O2)c2cc(F)ccc2Oc2ccccc23)CC1 (stereo not drawn) [Compound 54]	31.6
CCCC(=O)N1CCN(CC2CC3=C(O2)c2cc(F)ccc2Cc2ccccc23)CC1 (stereo not drawn) [Compound 55]	3.98
CCCC(=O)N1CCN(CC2CC3=C(O2)c2cc(F)ccc2Oc2ccccc23)CC1 (stereo not drawn) [Compound 56]	100
O=C(C1CC1)N1CCN(CC2CC3=C(O2)c2cc(F)ccc2Cc2ccccc23)CC1 (stereo not drawn) [Compound 57]	3.98
COC(=O)CC(=O)N1CCN(CC2CC3=C(O2)c2cc(F)ccc2Cc2ccccc23)CC1 (stereo not drawn) [Compound 59]	2
CCOC(=O)N1CCN(CC2CC3=C(O2)c2cc(F)ccc2Cc2ccccc23)CC1 (stereo not drawn) [Compound 61]	10
CCOC(=O)N1CCN(CC2CC3=C(O2)c2cc(F)ccc2Oc2ccccc23)CC1 (stereo not drawn) [Compound 62]	79.4
COc1ccc(C(=O)N2CCN(CC3CC4=C(O3)c3cc(F)ccc3Oc3ccccc34)CC2)cc1 (stereo not drawn) [Compound 74]	12.6
CN(C)C(=O)N1CCN(CC2CC3=C(O2)c2cc(F)ccc2Cc2ccccc23)CC1 (stereo not drawn) [Compound 75]	50.1
CN(C)C(=O)N1CCN(CC2CC3=C(O2)c2cc(F)ccc2Oc2ccccc23)CC1 (stereo not drawn) [Compound 76]	50.1
CCCCNC(=O)N1CCN(CC2CC3=C(O2)c2cc(F)ccc2Cc2ccccc23)CC1 (stereo not drawn) [Compound 77]	3.98
CCCCNC(=O)N1CCN(CC2CC3=C(O2)c2cc(F)ccc2Oc2ccccc23)CC1 (stereo not drawn) [Compound 78]	79.4
O=C(NC1CCCCC1)N1CCN(CC2CC3=C(O2)c2cc(F)ccc2Cc2ccccc23)CC1 (stereo not drawn) [Compound 79]	39.8
O=C(NC1CCCCC1)N1CCN(CC2CC3=C(O2)c2cc(F)ccc2Oc2ccccc23)CC1 (stereo not drawn) [Compound 80]	39.8
CCOC(=O)CNC(=O)N1CCN(CC2CC3=C(O2)c2cc(F)ccc2Oc2ccccc23)CC1 (stereo not drawn) [Compound 82]	39.8
O=C(Nc1ccccc1)N1CCN(CC2CC3=C(O2)c2cc(F)ccc2Cc2ccccc23)CC1 (stereo not drawn) [Compound 83]	10
O=C(Nc1ccc(F)cc1)N1CCN(CC2CC3=C(O2)c2cc(F)ccc2Cc2ccccc23)CC1 (stereo not drawn) [Compound 85]	3.16

target: T2, human cloned 5-HT2C receptor (Homo sapiens, UniProt P28335); assay: In vitro binding affinity for 5-HT2C receptor (radioligand binding); details: human cloned 5-HT2C receptor, radioligand binding; read-out: h-5HT2C (converted)
T2 construct: expressed in transfected cells; host or cells: CHO cells
T2 sequence (P28335 33-458): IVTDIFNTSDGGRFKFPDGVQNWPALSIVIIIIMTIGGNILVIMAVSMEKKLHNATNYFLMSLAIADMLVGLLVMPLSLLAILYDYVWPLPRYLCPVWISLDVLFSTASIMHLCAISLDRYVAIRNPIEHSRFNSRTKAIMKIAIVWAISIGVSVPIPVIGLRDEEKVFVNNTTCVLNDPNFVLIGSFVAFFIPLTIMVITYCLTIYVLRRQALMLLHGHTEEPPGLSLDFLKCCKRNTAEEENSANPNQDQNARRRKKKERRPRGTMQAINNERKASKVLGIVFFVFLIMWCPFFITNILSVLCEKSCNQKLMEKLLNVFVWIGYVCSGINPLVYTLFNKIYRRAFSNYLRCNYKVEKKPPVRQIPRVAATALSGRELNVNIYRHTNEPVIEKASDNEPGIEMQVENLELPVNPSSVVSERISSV
Procedure: During the incubation, the radioligands bind to the receptor. When equilibrium of binding is reached, the receptor bound radioactivity is separated from the non-bound radioactivity, and the receptor bound activity is counted. The interaction of the test compounds with the receptors is assessed in competition binding experiments. Various concentrations of the test compound are added to the incubation mixture containing the tissue preparation and the radioligand. Binding of the radioligand will be inhibited by the test compound in proportion to its binding affinity and its concentration.

SMILES	IC50 [nM]
CNCC1CC2=C(O1)c1cc(F)ccc1Sc1ccccc12 (single isomer, unassigned) [Compound 14]	0.2
CN(C)CC1CC2=C(O1)c1ccccc1Cc1ccccc12 (single isomer, unassigned) [Compound 23]	15.8
CN(C)CC1CC2=C(O1)c1ccccc1Cc1ccccc12 (single isomer, unassigned) [Compound 24]	1.26
CS(=O)(=O)N1CCN(CC2CC3=C(O2)c2cc(F)ccc2Oc2ccccc23)CC1 (stereo not drawn) [Compound 45]	100
O=S(=O)(Cc1ccccc1)N1CCN(CC2CC3=C(O2)c2cc(F)ccc2Cc2ccccc23)CC1 (stereo not drawn) [Compound 51]	200
O=S(=O)(Cc1ccccc1)N1CCN(CC2CC3=C(O2)c2cc(F)ccc2Oc2ccccc23)CC1 (stereo not drawn) [Compound 52]	200
CC(=O)N1CCN(CC2CC3=C(O2)c2cc(F)ccc2Cc2ccccc23)CC1 (stereo not drawn) [Compound 53]	7.94
CC(=O)N1CCN(CC2CC3=C(O2)c2cc(F)ccc2Oc2ccccc23)CC1 (stereo not drawn) [Compound 54]	100
CCCC(=O)N1CCN(CC2CC3=C(O2)c2cc(F)ccc2Cc2ccccc23)CC1 (stereo not drawn) [Compound 55]	10
CCCC(=O)N1CCN(CC2CC3=C(O2)c2cc(F)ccc2Oc2ccccc23)CC1 (stereo not drawn) [Compound 56]	100
O=C(C1CC1)N1CCN(CC2CC3=C(O2)c2cc(F)ccc2Cc2ccccc23)CC1 (stereo not drawn) [Compound 57]	20
COC(=O)CC(=O)N1CCN(CC2CC3=C(O2)c2cc(F)ccc2Cc2ccccc23)CC1 (stereo not drawn) [Compound 59]	5.01
CCOC(=O)N1CCN(CC2CC3=C(O2)c2cc(F)ccc2Cc2ccccc23)CC1 (stereo not drawn) [Compound 61]	20
CCOC(=O)N1CCN(CC2CC3=C(O2)c2cc(F)ccc2Oc2ccccc23)CC1 (stereo not drawn) [Compound 62]	200
COc1ccc(C(=O)N2CCN(CC3CC4=C(O3)c3cc(F)ccc3Oc3ccccc34)CC2)cc1 (stereo not drawn) [Compound 74]	100
CN(C)C(=O)N1CCN(CC2CC3=C(O2)c2cc(F)ccc2Cc2ccccc23)CC1 (stereo not drawn) [Compound 75]	316
CN(C)C(=O)N1CCN(CC2CC3=C(O2)c2cc(F)ccc2Oc2ccccc23)CC1 (stereo not drawn) [Compound 76]	158
CCCCNC(=O)N1CCN(CC2CC3=C(O2)c2cc(F)ccc2Oc2ccccc23)CC1 (stereo not drawn) [Compound 78]	50.1
O=C(NC1CCCCC1)N1CCN(CC2CC3=C(O2)c2cc(F)ccc2Oc2ccccc23)CC1 (stereo not drawn) [Compound 80]	79.4
CCOC(=O)CNC(=O)N1CCN(CC2CC3=C(O2)c2cc(F)ccc2Oc2ccccc23)CC1 (stereo not drawn) [Compound 82]	158
O=C(Nc1ccccc1)N1CCN(CC2CC3=C(O2)c2cc(F)ccc2Cc2ccccc23)CC1 (stereo not drawn) [Compound 83]	10

target: T3, human Dopamine D2L receptor (Homo sapiens, UniProt P14416); assay: In vitro binding affinity for human D2L receptor ([3H]Spiperone); details: human D2L receptor-transfected CHO cell membranes, [3H]Spiperone; read-out: h-D2L (converted)
T3 construct: expressed in transfected cells; host or cells: CHO cells
T3 sequence (P14416 whole entry): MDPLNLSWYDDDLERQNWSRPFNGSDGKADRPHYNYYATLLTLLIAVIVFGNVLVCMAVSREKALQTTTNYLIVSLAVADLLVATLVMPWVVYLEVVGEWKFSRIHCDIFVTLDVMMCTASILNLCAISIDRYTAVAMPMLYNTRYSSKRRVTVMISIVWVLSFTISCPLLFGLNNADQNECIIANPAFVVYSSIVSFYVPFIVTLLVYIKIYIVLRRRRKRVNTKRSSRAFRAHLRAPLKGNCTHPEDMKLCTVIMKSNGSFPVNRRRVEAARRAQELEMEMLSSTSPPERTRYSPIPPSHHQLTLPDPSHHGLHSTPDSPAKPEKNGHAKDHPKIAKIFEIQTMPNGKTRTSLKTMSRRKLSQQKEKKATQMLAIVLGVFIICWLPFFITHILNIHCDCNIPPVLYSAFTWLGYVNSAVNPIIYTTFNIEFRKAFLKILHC
Procedure: Frozen membranes of human Dopamine D2L receptor-transfected CHO cells were thawed, briefly homogenised using an Ultra-Turrax T25 homogeniser and diluted in Tris-HCl assay buffer containing NaCl, CaCl2, MgCl2, KCl (50, 120, 2, 1, and 5 mM respectively, adjusted to pH 7.7 with HCl) to an appropriate protein concentration optimised for specific and non-specific binding. Radioligand [^3H]Spiperone (NEN, specific activity ˜70 Ci/mmol) was diluted in assay buffer at a concentration of 2 nmol/L. Prepared radioligand (50 μl), along with 50 μl of either the 10% DMSO control, Butaclamol (10^−6 mol/l final concentration), or compound of interest, was then incubated (30 min, 37° C.) with 400 μl of the prepared membrane solution. Membrane-bound activity was filtered through a Packard Filtermate harvester onto GF/B Unifilterplates and washed with ice-cold Tris-HCl buffer (50 mM; pH 7.7; 6×0.5 ml). Filters were allowed to dry before adding scintillation fluid and counting in a Topcount scintillation counter. Percentage specific bound and competition binding curves were calculated using S-Plus software (Insightful).

SMILES	IC50 [nM]
CN(C)CC1CC2=C(O1)c1ccccc1Cc1ccccc12 (single isomer, unassigned) [Compound 23]	1580
CN(C)CC1CC2=C(O1)c1ccccc1Cc1ccccc12 (single isomer, unassigned) [Compound 24]	158
CS(=O)(=O)N1CCN(CC2CC3=C(O2)c2cc(F)ccc2Oc2ccccc23)CC1 (stereo not drawn) [Compound 45]	794
O=S(=O)(Cc1ccccc1)N1CCN(CC2CC3=C(O2)c2cc(F)ccc2Cc2ccccc23)CC1 (stereo not drawn) [Compound 51]	100
O=S(=O)(Cc1ccccc1)N1CCN(CC2CC3=C(O2)c2cc(F)ccc2Oc2ccccc23)CC1 (stereo not drawn) [Compound 52]	158
CC(=O)N1CCN(CC2CC3=C(O2)c2cc(F)ccc2Cc2ccccc23)CC1 (stereo not drawn) [Compound 53]	200
CCCC(=O)N1CCN(CC2CC3=C(O2)c2cc(F)ccc2Cc2ccccc23)CC1 (stereo not drawn) [Compound 55]	316
CCCC(=O)N1CCN(CC2CC3=C(O2)c2cc(F)ccc2Oc2ccccc23)CC1 (stereo not drawn) [Compound 56]	1260
O=C(C1CC1)N1CCN(CC2CC3=C(O2)c2cc(F)ccc2Cc2ccccc23)CC1 (stereo not drawn) [Compound 57]	316
COC(=O)CC(=O)N1CCN(CC2CC3=C(O2)c2cc(F)ccc2Cc2ccccc23)CC1 (stereo not drawn) [Compound 59]	316
CCOC(=O)N1CCN(CC2CC3=C(O2)c2cc(F)ccc2Cc2ccccc23)CC1 (stereo not drawn) [Compound 61]	200
CCOC(=O)N1CCN(CC2CC3=C(O2)c2cc(F)ccc2Oc2ccccc23)CC1 (stereo not drawn) [Compound 62]	631
COc1ccc(C(=O)N2CCN(CC3CC4=C(O3)c3cc(F)ccc3Oc3ccccc34)CC2)cc1 (stereo not drawn) [Compound 74]	251
CN(C)C(=O)N1CCN(CC2CC3=C(O2)c2cc(F)ccc2Cc2ccccc23)CC1 (stereo not drawn) [Compound 75]	794
CN(C)C(=O)N1CCN(CC2CC3=C(O2)c2cc(F)ccc2Oc2ccccc23)CC1 (stereo not drawn) [Compound 76]	251
CCCCNC(=O)N1CCN(CC2CC3=C(O2)c2cc(F)ccc2Cc2ccccc23)CC1 (stereo not drawn) [Compound 77]	126
O=C(NC1CCCCC1)N1CCN(CC2CC3=C(O2)c2cc(F)ccc2Cc2ccccc23)CC1 (stereo not drawn) [Compound 79]	1580
O=C(NC1CCCCC1)N1CCN(CC2CC3=C(O2)c2cc(F)ccc2Oc2ccccc23)CC1 (stereo not drawn) [Compound 80]	1000
CCOC(=O)CNC(=O)N1CCN(CC2CC3=C(O2)c2cc(F)ccc2Oc2ccccc23)CC1 (stereo not drawn) [Compound 82]	1580
O=C(Nc1ccccc1)N1CCN(CC2CC3=C(O2)c2cc(F)ccc2Cc2ccccc23)CC1 (stereo not drawn) [Compound 83]	251
O=C(Nc1ccc(F)cc1)N1CCN(CC2CC3=C(O2)c2cc(F)ccc2Cc2ccccc23)CC1 (stereo not drawn) [Compound 85]	100
